US20090299044A1 (priority 2006, published 2009)
Bridge positions count the residues as written; N and C are the ends. Square brackets hold non-standard residues; d marks the D form. Peptide text beside a SMILES is read from it. 1Nal = N[C@@H](Cc1cccc2ccccc12)C(=O)O

Experiments:
human Kv1.3 (CHO) = target: T1, human Kv1.3 (CHO) (Homo sapiens, UniProt P22001); test: cell-based
T1 construct: expressed in transfected cells; host or cells: CHO

human Kv1.1 (HEK293) = target: T2, human Kv1.1 (HEK293) (Homo sapiens, UniProt Q09470); test: cell-based
T2 construct: expressed in transfected cells; host or cells: HEK293
T2 sequence (Q09470 whole entry): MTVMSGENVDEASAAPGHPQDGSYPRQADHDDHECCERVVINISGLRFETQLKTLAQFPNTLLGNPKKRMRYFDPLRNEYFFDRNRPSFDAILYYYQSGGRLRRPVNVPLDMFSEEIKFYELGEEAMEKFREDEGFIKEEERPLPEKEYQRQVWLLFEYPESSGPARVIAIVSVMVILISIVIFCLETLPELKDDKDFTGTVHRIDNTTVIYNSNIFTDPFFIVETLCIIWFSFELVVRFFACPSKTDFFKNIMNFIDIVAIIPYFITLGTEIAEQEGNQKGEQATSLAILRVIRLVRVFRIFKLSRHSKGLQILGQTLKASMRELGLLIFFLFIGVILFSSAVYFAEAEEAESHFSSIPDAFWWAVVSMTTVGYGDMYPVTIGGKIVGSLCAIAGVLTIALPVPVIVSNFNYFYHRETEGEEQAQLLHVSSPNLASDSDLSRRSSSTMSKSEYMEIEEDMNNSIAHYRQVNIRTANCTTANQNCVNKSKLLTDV

T1 sequence (P22001 whole entry): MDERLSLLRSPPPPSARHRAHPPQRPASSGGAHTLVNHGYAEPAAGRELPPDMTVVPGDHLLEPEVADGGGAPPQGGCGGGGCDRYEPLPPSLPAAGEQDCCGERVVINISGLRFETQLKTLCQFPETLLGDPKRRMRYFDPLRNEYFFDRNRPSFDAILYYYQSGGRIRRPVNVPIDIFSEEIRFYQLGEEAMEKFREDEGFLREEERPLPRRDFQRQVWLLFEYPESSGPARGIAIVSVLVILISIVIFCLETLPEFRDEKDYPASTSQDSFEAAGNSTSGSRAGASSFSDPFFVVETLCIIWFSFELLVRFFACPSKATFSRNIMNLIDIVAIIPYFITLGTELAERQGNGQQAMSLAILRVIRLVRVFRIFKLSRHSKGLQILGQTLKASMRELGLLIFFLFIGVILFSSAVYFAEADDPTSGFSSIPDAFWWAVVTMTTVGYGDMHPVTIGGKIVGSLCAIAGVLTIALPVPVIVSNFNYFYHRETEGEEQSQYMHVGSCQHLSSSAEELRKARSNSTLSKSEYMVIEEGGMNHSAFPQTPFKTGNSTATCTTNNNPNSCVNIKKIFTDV

## CC[C@H](C)[C@@H]1NC(=O)[C@H](CCCCN)NC(=O)[C@@H](NC(=O)[C@H](CCCCN)NC(=O)[C@@H](NC(=O)[C@H](CC(N)=O)NC(=O)[C@@H](NC(=O)[C@@H](NC(=O)[C@@H](NC(=O)CN)C(C)C)[C@@H](C)CC)[C@@H](C)CC)C(C)C)CSSC[C@@H]2NC(=O)[C@H](CCC(=O)O)NC(=O)CNC(=O)[C@H](Cc3ccccc3)NC(=O)[C@H](CCCNC(=N)N)NC(=O)[C@H](CCSC)NC(=O)CNC(=O)[C@H](C)NC(=O)[C@H](CCCCN)NC(=O)[C@H](CCCCN)NC(=O)[C@@H]3CSSC[C@@H](C(=O)N[C@H](C(=O)N4CCC[C@H]4C(=O)N[C@@H](CCCCN)C(=O)O)[C@@H](C)O)NC(=O)[C@H](Cc4c[nH]cn4)NC(=O)[C@H](CSSC[C@H](NC(=O)[C@H](CCC(N)=O)NC(=O)[C@H](CCCNC(=N)N)NC(=O)[C@H](CO)NC1=O)C(=O)N[C@@H](CC(C)C)C(=O)N[C@@H](CCC(=O)O)C(=O)N1CCC[C@H]1C(=O)N3)NC(=O)[C@H](CCCCN)NC(=O)CNC(=O)[C@H](CC(N)=O)NC(=O)[C@H](CCSC)NC2=O [K27E] (H-GVIINVKCKISRQCLEPCKKAGMRFGECMNGKCHCTPK-OH; disulfide 8-28, 14-33, 18-35)
Human Kv1.3 (CHO)
  IC50: > 3.33 nM
Human Kv1.1 (HEK293)
  IC50: 0.549 nM

## CC[C@H](C)[C@@H]1NC(=O)[C@H](CCCCN)NC(=O)[C@@H](NC(=O)[C@H](CCCCN)NC(=O)[C@@H](NC(=O)[C@H](CC(N)=O)NC(=O)[C@@H](NC(=O)[C@@H](NC(=O)[C@@H](NC(=O)CN)C(C)C)[C@@H](C)CC)[C@@H](C)CC)C(C)C)CSSC[C@@H]2NC(=O)[C@H](Cc3cccc4ccccc34)NC(=O)CNC(=O)[C@H](Cc3ccccc3)NC(=O)[C@H](CCCNC(=N)N)NC(=O)[C@H](CCSC)NC(=O)CNC(=O)[C@H](C)NC(=O)[C@H](CCCCN)NC(=O)[C@H](CCCCN)NC(=O)[C@@H]3CSSC[C@@H](C(=O)N[C@H](C(=O)N4CCC[C@H]4C(=O)N[C@@H](CCCCN)C(=O)O)[C@@H](C)O)NC(=O)[C@H](Cc4c[nH]cn4)NC(=O)[C@H](CSSC[C@H](NC(=O)[C@H](CCC(N)=O)NC(=O)[C@H](CCCNC(=N)N)NC(=O)[C@H](CO)NC1=O)C(=O)N[C@@H](CC(C)C)C(=O)N[C@@H](CCC(=O)O)C(=O)N1CCC[C@H]1C(=O)N3)NC(=O)[C@H](CCCCN)NC(=O)CNC(=O)[C@H](CC(N)=O)NC(=O)[C@H](CCSC)NC2=O [K27Nal] (H-GVIINVKCKISRQCLEPCKKAGMRFG[1Nal]CMNGKCHCTPK-OH; disulfide 8-28, 14-33, 18-35)
Human Kv1.3 (CHO)
  IC50: > 3.33 nM
Human Kv1.1 (HEK293)
  IC50: 1.04 nM

## CC[C@H](C)[C@@H]1NC(=O)[C@H](CCCCN)NC(=O)[C@@H](NC(=O)[C@H](CCCCN)NC(=O)[C@@H](NC(=O)[C@H](CC(N)=O)NC(=O)[C@@H](NC(=O)[C@@H](NC(=O)[C@@H](NC(=O)CN)C(C)C)[C@@H](C)CC)[C@@H](C)CC)C(C)C)CSSC[C@@H]2NC(=O)[C@H](CCCNC(=N)N)NC(=O)CNC(=O)[C@H](Cc3ccccc3)NC(=O)[C@H](CCCNC(=N)N)NC(=O)[C@H](CCSC)NC(=O)CNC(=O)[C@H](C)NC(=O)[C@H](CCCCN)NC(=O)[C@H](CCCCN)NC(=O)[C@@H]3CSSC[C@@H](C(=O)N[C@H](C(=O)N4CCC[C@H]4C(=O)N[C@@H](CCCCN)C(=O)O)[C@@H](C)O)NC(=O)[C@H](Cc4c[nH]cn4)NC(=O)[C@H](CSSC[C@H](NC(=O)[C@H](CCC(N)=O)NC(=O)[C@H](CCCNC(=N)N)NC(=O)[C@H](CO)NC1=O)C(=O)N[C@@H](CC(C)C)C(=O)N[C@@H](CCC(=O)O)C(=O)N1CCC[C@H]1C(=O)N3)NC(=O)[C@H](CCCCN)NC(=O)CNC(=O)[C@H](CC(N)=O)NC(=O)[C@H](CCSC)NC2=O [K27R] (H-GVIINVKCKISRQCLEPCKKAGMRFGRCMNGKCHCTPK-OH; disulfide 8-28, 14-33, 18-35)
Human Kv1.3 (CHO)
  IC50: 1.49 nM
Human Kv1.1 (HEK293)
  IC50: > 3.33 nM

## CC[C@H](C)[C@@H]1NC(=O)[C@H](CCCCN)NC(=O)[C@@H](NC(=O)[C@H](CCCCN)NC(=O)[C@@H](NC(=O)[C@H](CC(N)=O)NC(=O)[C@@H](NC(=O)[C@@H](NC(=O)[C@@H](NC(=O)CN)C(C)C)[C@@H](C)CC)[C@@H](C)CC)C(C)C)CSSC[C@@H]2NC(=O)[C@H](CCCCN)NC(=O)CNC(=O)[C@H](Cc3ccccc3)NC(=O)[C@H](CCCNC(=N)N)NC(=O)[C@H](CCSC)NC(=O)CNC(=O)[C@H](C)NC(=O)[C@H](CCCCN)NC(=O)[C@H](CCCCN)NC(=O)[C@@H]3CSSC[C@@H](C(=O)N[C@H](C(=O)N4CCC[C@H]4C(=O)N[C@@H](CCCCN)C(=O)O)[C@@H](C)O)NC(=O)[C@H](Cc4c[nH]cn4)NC(=O)[C@H](CSSC[C@H](NC(=O)[C@H](CCC(N)=O)NC(=O)[C@H](CCCNC(=N)N)NC(=O)[C@H](CO)NC1=O)C(=O)N[C@@H](CC(C)C)C(=O)N[C@@H](CCC(=O)O)C(=O)N1CCC[C@H]1C(=O)N3)NC(=O)[C@H](CCC(=O)O)NC(=O)CNC(=O)[C@H](CC(N)=O)NC(=O)[C@H](CCSC)NC2=O [K32E] (H-GVIINVKCKISRQCLEPCKKAGMRFGKCMNGECHCTPK-OH; disulfide 8-28, 14-33, 18-35)
Human Kv1.3 (CHO)
  IC50: 0.0156 nM
Human Kv1.1 (HEK293)
  IC50: 0.0173 nM

## CC[C@H](C)[C@@H]1NC(=O)[C@H](CCCCN)NC(=O)[C@@H](NC(=O)[C@H](CCCCN)NC(=O)[C@@H](NC(=O)[C@H](CC(N)=O)NC(=O)[C@@H](NC(=O)[C@@H](NC(=O)[C@@H](NC(=O)CN)C(C)C)[C@@H](C)CC)[C@@H](C)CC)C(C)C)CSSC[C@@H]2NC(=O)[C@H](CCCCN)NC(=O)CNC(=O)[C@H](Cc3ccccc3)NC(=O)[C@H](CCCNC(=N)N)NC(=O)[C@H](CCSC)NC(=O)CNC(=O)[C@H](C)NC(=O)[C@H](CCCCN)NC(=O)[C@H](CCCCN)NC(=O)[C@@H]3CSSC[C@@H](C(=O)N[C@H](C(=O)N4CCC[C@H]4C(=O)N[C@@H](CCCCN)C(=O)O)[C@@H](C)O)NC(=O)[C@H](Cc4c[nH]cn4)NC(=O)[C@H](CSSC[C@H](NC(=O)[C@H](CCC(N)=O)NC(=O)[C@H](CCCNC(=N)N)NC(=O)[C@H](CO)NC1=O)C(=O)N[C@@H](CC(C)C)C(=O)N[C@@H](CCC(=O)O)C(=O)N1CCC[C@H]1C(=O)N3)NC(=O)[C@H](CCCNC(=N)N)NC(=O)CNC(=O)[C@H](CC(N)=O)NC(=O)[C@H](CCSC)NC2=O [K32R] (H-GVIINVKCKISRQCLEPCKKAGMRFGKCMNGRCHCTPK-OH; disulfide 8-28, 14-33, 18-35)
Human Kv1.3 (CHO)
  IC50: 0.0308 nM
Human Kv1.1 (HEK293)
  IC50: 0.00724 nM

## CC[C@H](C)[C@@H]1NC(=O)[C@H](CCCCN)NC(=O)[C@@H](NC(=O)[C@H](CCCCN)NC(=O)[C@@H](NC(=O)[C@H](CC(N)=O)NC(=O)[C@@H](NC(=O)[C@@H](NC(=O)[C@@H](NC(=O)CN)C(C)C)[C@@H](C)CC)[C@@H](C)CC)C(C)C)CSSC[C@@H]2NC(=O)[C@H](CCCCN)NC(=O)CNC(=O)[C@H](Cc3ccccc3)NC(=O)[C@H](CCCNC(=N)N)NC(=O)[C@H](CCSC)NC(=O)CNC(=O)[C@H](C)NC(=O)[C@H](CCCCN)NC(=O)[C@H](CCCCN)NC(=O)[C@@H]3CSSC[C@@H](C(=O)N[C@H](C(=O)N4CCC[C@H]4C(=O)N[C@@H](CCC(=O)O)C(=O)O)[C@@H](C)O)NC(=O)[C@H](Cc4c[nH]cn4)NC(=O)[C@H](CSSC[C@H](NC(=O)[C@H](CCC(N)=O)NC(=O)[C@H](CCCNC(=N)N)NC(=O)[C@H](CO)NC1=O)C(=O)N[C@@H](CC(C)C)C(=O)N[C@@H](CCC(=O)O)C(=O)N1CCC[C@H]1C(=O)N3)NC(=O)[C@H](CCCCN)NC(=O)CNC(=O)[C@H](CC(N)=O)NC(=O)[C@H](CCSC)NC2=O [K38E] (H-GVIINVKCKISRQCLEPCKKAGMRFGKCMNGKCHCTPE-OH; disulfide 8-28, 14-33, 18-35)
Human Kv1.3 (CHO)
  IC50: 0.0258 nM
Human Kv1.1 (HEK293)
  IC50: 0.0343 nM

## CC[C@H](C)[C@@H]1NC(=O)[C@H](CCCCN)NC(=O)[C@@H](NC(=O)[C@H](CCCCN)NC(=O)[C@@H](NC(=O)[C@H](CC(N)=O)NC(=O)[C@@H](NC(=O)[C@@H](NC(=O)[C@@H](NC(=O)CN)C(C)C)[C@@H](C)CC)[C@@H](C)CC)C(C)C)CSSC[C@@H]2NC(=O)[C@H](CCCCN)NC(=O)CNC(=O)[C@H](Cc3ccccc3)NC(=O)[C@H](CCCNC(=N)N)NC(=O)[C@H](CCSC)NC(=O)CNC(=O)[C@H](C)NC(=O)[C@H](CCCCN)NC(=O)[C@H](CCCCN)NC(=O)[C@@H]3CSSC[C@@H](C(=O)N[C@H](C(=O)N4CCC[C@H]4C(=O)N[C@@H](CCCNC(=N)N)C(=O)O)[C@@H](C)O)NC(=O)[C@H](Cc4c[nH]cn4)NC(=O)[C@H](CSSC[C@H](NC(=O)[C@H](CCC(N)=O)NC(=O)[C@H](CCCNC(=N)N)NC(=O)[C@H](CO)NC1=O)C(=O)N[C@@H](CC(C)C)C(=O)N[C@@H](CCC(=O)O)C(=O)N1CCC[C@H]1C(=O)N3)NC(=O)[C@H](CCCCN)NC(=O)CNC(=O)[C@H](CC(N)=O)NC(=O)[C@H](CCSC)NC2=O [K38R] (H-GVIINVKCKISRQCLEPCKKAGMRFGKCMNGKCHCTPR-OH; disulfide 8-28, 14-33, 18-35)
Human Kv1.3 (CHO)
  IC50: 0.015 nM
Human Kv1.1 (HEK293)
  IC50: 0.00184 nM

## CC[C@H](C)[C@@H]1NC(=O)[C@H](CCCCN)NC(=O)[C@@H](NC(=O)[C@H](CCCCN)NC(=O)[C@@H](NC(=O)[C@H](CC(N)=O)NC(=O)[C@@H](NC(=O)[C@@H](NC(=O)[C@@H](NC(=O)CN)C(C)C)[C@@H](C)CC)[C@@H](C)CC)C(C)C)CSSC[C@@H]2NC(=O)[C@H](CCCCN)NC(=O)CNC(=O)[C@H](Cc3ccccc3)NC(=O)[C@H](CCCNC(=N)N)NC(=O)[C@H](CCSC)NC(=O)CNC(=O)[C@H](C)NC(=O)[C@H](CCCCN)NC(=O)[C@H](CCCCN)NC(=O)[C@@H]3CSSC[C@@H](C(=O)N[C@H](C(=O)N4CCC[C@H]4C(=O)N[C@@H](CCCCN)C(=O)O)[C@@H](C)O)NC(=O)[C@H](Cc4c[nH]cn4)NC(=O)[C@H](CSSC[C@H](NC(=O)[C@H](CCC(N)=O)NC(=O)[C@H](CCCNC(=N)N)NC(=O)[C@H](CO)NC1=O)C(=O)N[C@@H](C)C(=O)N[C@@H](CCC(=O)O)C(=O)N1CCC[C@H]1C(=O)N3)NC(=O)[C@H](CCCCN)NC(=O)CNC(=O)[C@H](CC(N)=O)NC(=O)[C@H](CCSC)NC2=O [L15A] (H-GVIINVKCKISRQCAEPCKKAGMRFGKCMNGKCHCTPK-OH; disulfide 8-28, 14-33, 18-35)
Human Kv1.3 (CHO)
  IC50: 0.0431 nM
Human Kv1.1 (HEK293)
  IC50: 0.015 nM
